Reference: patent US7329634B2, “3-Phenyl substituted 3-substituted-4ketolactams and ketolactones” (Bayer CropScience AG, priority 2003, dated 2008)

How the values were obtained:
[1] = tested on: Meloidogyne incognita; test: Meloidogyne test; format: in vivo; details: 20 ppm; nematicidal action by formation of galls on lettuce roots; 100% = no galls
Method: • Solvents: 78 parts by weight of acetone • 1.5 parts by weight of dimethylformamide • Emulsifier: 0.5 part by weight of alkylaryl polyglycol ether
To produce a suitable preparation of active compound, 1 part by weight of active compound is mixed with the stated amounts of solvent and emulsifier, and the concentrate is diluted with water to the desired concentration.
Vessels are filled with sand, solution of active compound, Meloidogyne incognita egg/larvae suspension and lettuce seeds. The lettuce seeds germinate and the plants develop. On the roots, galls develop.
After the desired period of time, the nematicidal action is determined in % by the formation of galls. 100% means that no galls have been found; 0% means that the number of galls on the treated plants corresponds to that of the untreated control.

[2] = tested on: greenhouse red spider mite (Tetranychus urticae); test: Tetranychus test (OP-resistant/spray treatment); format: in vivo; details: 100 ppm; spray treatment of bean leaf discs (Phaseolus vulgaris); OP-resistant
Method: Tetranychus Test (OP-Resistant/Spray Treatment)
• Solvents: 78 parts by weight of acetone • 1.6 parts by weight of dimethylformamide • Emulsifier: 0.5 part by weight of alkylaryl polyglycol ether
To produce a suitable preparation of active compound, 1 part by weight of active compound is mixed with the stated amounts of solvent and emulsifier, and the concentrate is diluted with emulsifier-containing water to the desired concentration.
Discs of the leaves of beans (Phaseolus vulgaris) which are infested by all stages of the greenhouse red spider mite (Tetranychus urticae) are sprayed with a preparation of active compound of the desired concentration.
After the desired period of time, the activity in % is determined. 100% means that all spider mites have been killed; 0% means that none of the spider mites have been killed.

CCc1cc(Br)cc(Br)c1C1(Cl)C(=O)NC(C)(C)C1=O (centres unmarked) [Ex. I-1-1]
Effect in % after 14d [1]: 100% | Kill rate in % after 4d [2]: 80%
